The results in this text go back to US20240360148A1 (SUVALENT THERAPEUTICS, INC., priority 2021, published 2024).

Experiment [1] concerns sumoylation levels (SUMO 2/3 conjugates) in HCT-116 cells. Briefly: HCT-116 4 Hour Cell Assay (Western, SUMO 2/3 conjugates). The experiment is classed as cell-based. Conditions: Homo sapiens, HCT-116, 4 h, 4 h treatment, Anti-Sumo 2-3 immunoblot, read-out: HCT-116 Western 4 h IC50 (μM) Ave. The essentials: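 IC50 derived from fluorescent immunoblot quantification of SUMO 2/3 conjugate bands, normalized to total protein, after non-reducing SDS-PAGE. Lysis used RIPA plus NEM; exposure was 4 h across 11 concentrations, three-fold serial dilution starting at 25 μM.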
(In general: In western blotting, separated proteins are transferred to a membrane and probed.)

In experiment [2] the target is SAE1 (Homo sapiens (Human), UniProt Q9UBE0+Q9UBT2). Kind of experiment: SAE High Throughput Biochemical Assay (HTRF), 15 min preincubation. Conditions: read-out: 15 min preincubation HTRF IC50 (μM) Ave, SAE1 12.5 nM, ATP 100 μM. The essentials:
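HTRF detection of SUMO transfer from SUMO-GST to UBC9-His (40 nM each) by SAE1 at 12.5 nM used 100 μM ATP in pH 7.5 HEPES buffer with 10 mM MgCl2 and 0.1% BSA. Enzyme and compound were preincubated 15 min at RT and the reaction ran 45 min, with readings after 2 h and overnight.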
In general terms: In TR-FRET formats the signal depends on donor and acceptor labels being close together.

The term IC50 denotes the concentration at which inhibition is half-maximal.

SAE1, sequence (Q9UBE0 whole entry): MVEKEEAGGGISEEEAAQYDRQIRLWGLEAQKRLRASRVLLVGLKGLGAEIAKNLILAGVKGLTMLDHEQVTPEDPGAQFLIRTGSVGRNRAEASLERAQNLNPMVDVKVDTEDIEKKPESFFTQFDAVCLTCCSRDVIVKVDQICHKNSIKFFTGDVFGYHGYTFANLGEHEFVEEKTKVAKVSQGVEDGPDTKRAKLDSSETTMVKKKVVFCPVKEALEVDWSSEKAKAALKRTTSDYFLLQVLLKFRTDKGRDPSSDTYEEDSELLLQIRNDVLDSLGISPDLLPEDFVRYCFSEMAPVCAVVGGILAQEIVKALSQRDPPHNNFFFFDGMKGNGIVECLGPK
SAE1, sequence (Q9UBT2 whole entry): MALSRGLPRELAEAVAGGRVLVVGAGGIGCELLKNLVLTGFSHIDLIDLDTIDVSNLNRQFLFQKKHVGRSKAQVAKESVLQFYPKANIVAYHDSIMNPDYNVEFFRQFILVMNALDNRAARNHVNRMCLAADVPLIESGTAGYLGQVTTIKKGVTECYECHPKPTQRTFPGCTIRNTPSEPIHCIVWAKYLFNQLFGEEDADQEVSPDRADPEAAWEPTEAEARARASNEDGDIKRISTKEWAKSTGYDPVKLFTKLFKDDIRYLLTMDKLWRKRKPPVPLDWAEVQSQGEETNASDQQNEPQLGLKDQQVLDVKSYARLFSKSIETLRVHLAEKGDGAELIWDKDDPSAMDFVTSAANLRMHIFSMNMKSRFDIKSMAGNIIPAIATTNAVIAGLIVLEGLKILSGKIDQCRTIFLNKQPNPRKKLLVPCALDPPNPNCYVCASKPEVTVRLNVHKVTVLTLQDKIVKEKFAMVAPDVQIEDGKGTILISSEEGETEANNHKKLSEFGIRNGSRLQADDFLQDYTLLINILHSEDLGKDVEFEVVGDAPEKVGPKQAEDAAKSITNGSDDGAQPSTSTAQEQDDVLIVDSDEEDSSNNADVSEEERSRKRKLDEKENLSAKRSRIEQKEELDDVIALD

Turning to `CN(C)C/C=C/C(=O)N1Cc2sc(C#N)cc2[C@H](c2ccccc2-c2cn(-c3c(F)cncc3Cl)nc2C(F)(F)F)C1` [Example 156, (S,E)-4-(2-(1-(3-Chloro-5-fluoropyridin-4-yl)-3-(trifluoromethyl)-1H pyrazol-4-yl)phenyl)-6-(4-(dimethylamino)but-2-enoyl)-4,5,6,7-tetrahydrothieno[2,3-c]pyridine-2-carbonitrile], the IC50 in experiment [1] came to 0.349 µM; in experiment [2], 2.91 µM.

`CC(C#N)n1cc(-c2ccccc2[C@@H]2CN(C(=O)/C=C/CN(C)C)Cc3sc(C#N)cc32)c(C(F)(F)F)n1` (stereo partly drawn) [Example 165, (4S)-4-(2-(1-(1-Cyanoethyl)-3-(trifluoromethyl)-1H-pyrazol-4-yl)phenyl)-6-((E)-4-(dimethylamino)but-2-enoyl)-4,5,6,7-tetrahydrothieno[2,3-c]pyridine-2-carbonitrile]: the IC50 is 1.06 µM in experiment [1] and 3.42 µM in experiment [2].

Regarding `CCn1cc(-c2ccccc2[C@@H]2CN(C(=O)/C=C/[C@@H]3C[C@@H]4C[C@@H]4N3)Cc3sc(C#N)cc32)c(C(F)(F)F)n1` [Example 117, (S)-6-((E)-3-((1S,3S,5S)-2-Azabicyclo[3.1.0]hexan-3-yl)acryloyl)-4-(2-(1-ethyl-3-(trifluoromethyl)-1H pyrazol-4-yl)phenyl)-4,5,6,7-tetrahydrothieno[2,3-c]pyridine-2-carbonitrile], the values for the IC50 in experiment [1] and in experiment [2] were 0.427 µM and 1.16 µM, respectively.

In the case of `CCn1cc(-c2ccccc2[C@@H]2CN(C(=O)/C=C/CN(C)C)Cc3sc(C#N)c(Cl)c32)c(C(F)(F)F)n1` [Compound 247], the IC50 in experiment [1] stood at 0.2 µM; in experiment [2], 1.66 µM.

Take `CCn1cc(-c2c(C(F)F)cccc2C2CN(C(=O)/C=C/CN(C)C)Cc3sc(C#N)cc32)c(C(F)(F)F)n1` (stereo not drawn) [Compound 241]: the results for the IC50 in experiment [1] and in experiment [2] were 0.445 µM and 5.52 µM, respectively.

`CCn1cc(-c2c(F)cccc2[C@@H]2CN(C(=O)/C=C/[C@@H]3C[C@@H](OC)CN3)Cc3sc(C#N)cc32)c(C(F)(F)F)n1` [Example 120, (S)-4-(2-(1-Ethyl-3-(trifluoromethyl)-1H pyrazol-4-yl)-3-fluorophenyl)-6-((E)-3-((2S,4R)-4-methoxypyrrolidin-2-yl)acryloyl)-4,5,6,7-tetrahydrothieno[2,3-c]pyridine-2-carbonitrile]: the IC50 in experiment [1] came to 0.383 µM; in experiment [2] it was 0.31 µM.

Regarding `CCn1cc(-c2c(C)cccc2[C@@H]2CN(C(=O)/C=C/CN(C)C)Cc3sc(C#N)cc32)c(C(F)(F)F)n1` [Compound 242], the concentration for half-maximal inhibition (IC50) was determined as 1.29 µM in experiment [1] and 2.32 µM in experiment [2].

For the compound `CN(C)C/C=C/C(=O)N1Cc2sc(C#N)cc2[C@H](c2ccccc2-c2cn(-c3c(F)cncc3F)nc2C(F)(F)F)C1` [Example 159, (S,E)-4-(2-(1-(3,5-Difluoropyridin-4-yl)-3-(trifluoromethyl)-1H pyrazol-4-yl)phenyl)-6-(4-(dimethylamino)but-2-enoyl)-4,5,6,7-tetrahydrothieno[2,3-c]pyridine-2-carbonitrile], the 50% inhibitory concentration (IC50) in experiment [1] stood at 0.128 µM; in experiment [2], 4.52 µM.

On to `CNC/C=C/C(=O)N1Cc2sc(C#N)cc2[C@H](c2cccc(F)c2-c2cn(C)nc2C(F)(F)F)C1` [Example 129, (S,E)-4-(3-Fluoro-2-(1-methyl-3-(trifluoromethyl)-1 H pyrazol-4-yl)phenyl)-6-(4-(methylamino)but-2-enoyl)-4,5,6,7-tetrahydrothieno[2,3-c]pyridine-2-carbonitrile], for which the concentration for half-maximal inhibition (IC50) in experiment [1] worked out at 0.249 µM; in experiment [2] it was 0.505 µM.

In the case of `[2H]C(C)(C)NC/C=C/C(=O)N1Cc2sc(C#N)cc2[C@H](c2cccc(F)c2-c2cn(CC)nc2C(F)(F)F)C1` [Example 52, (S, E)-4-(2-(1-ethyl-3-(trifluoromethyl)-1 H-pyrazol-4-yl)-3-fluorophenyl)-6-(4-((propan-2-yl-2-d)amino)but-2-enoyl)-4,5,6,7-tetrahydrothieno[2,3-c]pyridine-2-carbonitrile], the 50% inhibitory concentration (IC50) was 0.308 µM in experiment [1] and 0.69 µM in experiment [2].

Turning to `CCn1cc(-c2c([C@@H]3CN(C(=O)/C=C/CN(C)C)Cc4sc(C#N)cc43)ccc(O)c2F)c(C(F)(F)F)n1` [Compound 240], the concentration for half-maximal inhibition (IC50) in experiment [1] was determined as 0.187 µM; in experiment [2], 0.81 µM.

As to `CCn1cc(-c2ccccc2[C@@H]2CN(C(=O)/C=C/[C@@H]3CCC(C)(C)N3)Cc3sc(C#N)cc32)c(C(F)(F)F)n1` [Example 79, (S)-6-((E)-3-((S)-5,5-Dimethylpyrrolidin-2-yl)acryloyl)-4-(2-(1-ethyl-3-(trifluoromethyl)-1H pyrazol-4-yl)phenyl)-4,5,6,7-tetrahydrothieno[2,3-c]pyridine-2-carbonitrile], the half-maximal inhibitory concentration (IC50) was determined as 0.324 µM in experiment [1] and 1.77 µM in experiment [2].

For the compound `C#CCn1cc(-c2ccccc2[C@@H]2CN(C(=O)/C=C/CN(C)C)Cc3sc(C#N)cc32)c(C(F)(F)F)n1` [Example 155, (S, E)-6-(4-(Dimethylamino)but-2-enoyl)-4-(2-(1-(prop-2-yn-1-yl)-3-(trifluoromethyl)-1 H-pyrazol-4-yl)phenyl)-4,5,6,7-tetrahydrothieno[2,3-c]pyridine-2-carbonitrile], the IC50 came to 0.321 µM in experiment [1] and 3.52 µM in experiment [2].

With `CCNC/C=C/C(=O)N1Cc2sc(C#N)cc2[C@H](c2cccc(F)c2-c2cn(CC)nc2C(F)(F)F)C1` [Example 100, (S, E)-4-(2-(1-Ethyl-3-(trifluoromethyl)-1 H-pyrazol-4-yl)-3-fluorophenyl)-6-(4-(ethylamino)but-2-enoyl)-4,5,6,7-tetrahydrothieno[2,3-c]pyridine-2-carbonitrile], the IC50 in experiment [1] is 0.174 µM; in experiment [2] it was 1.38 µM.

For `CCn1cc(-c2ccccc2[C@@H]2CN(C(=O)/C=C/CNCC(C)C)Cc3sc(C#N)cc32)c(C(F)(F)F)n1` [Example 104], the IC50 amounted to 1.78 µM in experiment [1] and 2.14 µM in experiment [2].

Consider `C=CC(=O)N1Cc2sc(C#N)c(C)c2C(c2ccccc2-c2cn(CC)nc2C(F)(F)F)C1` (stereo not drawn) [Compound 231], for which the IC50 is 1 µM in experiment [1] and 0.16 µM in experiment [2].

Regarding `CCn1cc(-c2ccccc2[C@@H]2CN(C(=O)/C=C/[C@H](C)NC)Cc3sc(C#N)cc32)c(C(F)(F)F)n1` [Example 84, (S)-4-(2-(1-Ethyl-3-(trifluoromethyl)-1 H pyrazol-4-yl)phenyl)-6-((S, E)-4-(methylamino)pent-2-enoyl)-4,5,6,7-tetrahydrothieno[2,3-c]pyridine-2-carbonitrile], the figures for the half-maximal inhibitory concentration (IC50) in experiment [1] and in experiment [2] were 0.503 µM and 2.79 µM, respectively.

In the case of `CCn1cc(-c2c(F)cccc2[C@@H]2CN(C(=O)/C=C/C3CC(F)(F)CN3)Cc3sc(C#N)cc32)c(C(F)(F)F)n1` (stereo partly drawn) [Example 253, (S)-6-((E)-3-((S)-4,4-difluoropyrrolidin-2-yl)acryloyl)-4-((S)-2-(1-ethyl-3-(trifluoromethyl)-1 H-pyrazol-4-yl)-3-fluorophenyl)-4,5,6,7-tetrahydrothieno[2,3-c]pyridine-2-carbonitrile 2,2,2-trifluoroacetate], the results for the 50% inhibitory concentration (IC50) in experiment [1] and in experiment [2] were 0.919 µM and 2.92 µM, respectively.

For `CCn1cc(-c2c(C3CN(C(=O)/C=C/CN(C)C)Cc4sc(C#N)cc43)csc2C)c(C(F)(F)F)n1` (stereo not drawn) [Example 199, (E)-6-(4-(Dimethylamino)but-2-enoyl)-4-(4-(1-ethyl-3-(trifluoromethyl)-1 H-pyrazol-4-yl)-5-methylthiophen-3-yl)-4,5,6,7-tetrahydrothieno[2,3-c]pyridine-2-carbonitrile], the values for the IC50 in experiment [1] and in experiment [2] were 1.26 µM and 2.87 µM, respectively.

As to `CCn1cc(-c2ccccc2[C@@H]2CN(C(=O)/C=C/CNC(C)(C)CO)Cc3sc(C#N)cc32)c(C(F)(F)F)n1` [Compound 244], the IC50 in experiment [1] came out at 1.97 µM; in experiment [2], 2.88 µM.

`CCn1cc(-c2c(F)cccc2[C@@H]2CN(C(=O)/C=C/CN)Cc3sc(C#N)cc32)c(C(F)(F)F)n1` [Example 51, (S)-6-((E)-4-aminobut-2-enoyl)-4-((S)-2-(1-ethyl-3-(trifluoromethyl)-1 H-pyrazol-4-yl)-3-fluorophenyl)-4,5,6,7-tetrahydrothieno[2,3-c]pyridine-2-carbonitrile]: the figures for the concentration for half-maximal inhibition (IC50) in experiment [1] and in experiment [2] were 0.569 µM and 1.29 µM, respectively.

For `CCn1cc(-c2ccccc2[C@@H]2CN(C(=O)C#CCN)Cc3sc(C#N)cc32)c(C(F)(F)F)n1` [Example 135, (S)-6-(4-Aminobut-2-ynoyl)-4-(2-(1-ethyl-3-(trifluoromethyl)-1H pyrazol-4-yl)phenyl)-4,5,6,7-tetrahydrothieno[2,3-c]pyridine-2-carbonitrile], the values for the IC50 in experiment [1] and in experiment [2] were 1.2 µM and 0.51 µM, respectively.

Consider `CCn1cc(-c2c(F)cccc2[C@@H]2CN(C(=O)/C=C/[C@@H]3C[C@H](F)CN3)Cc3sc(C#N)cc32)c(C(F)(F)F)n1` [Example 122, (S)-4-(2-(1-Ethyl-3-(trifluoromethyl)-1H pyrazol-4-yl)-3-fluorophenyl)-6-((E)-3-((2S,4S)-4-fluoropyrrolidin-2-yl)acryloyl)-4,5,6,7-tetrahydrothieno[2,3-c]pyridine-2-carbonitrile], for which the 50% inhibitory concentration (IC50) is 0.0631 µM in experiment [1] and 0.12 µM in experiment [2].

As to `CCNC/C=C/C(=O)N1Cc2sc(C#N)cc2[C@H](c2ccccc2-c2cn(CC)nc2C(F)(F)F)C1` [Example 99, (S, E)-4-(2-(1-Ethyl-3-(trifluoromethyl)-1 H-pyrazol-4-yl)phenyl)-6-(4-(ethylamino)but-2-enoyl)-4,5,6,7-tetrahydrothieno[2,3-c]pyridine-2-carbonitrile], the results for the IC50 in experiment [1] and in experiment [2] were 0.563 µM and 2.83 µM, respectively.
